Experimental findings from US9725446B2, “7-azaindole derivatives” (MERCK PATENT GmbH, priority 2011, dated 2017) are described below.

Broadly, the IC50 is the midpoint of a concentration-inhibition curve.

Test [1] deals with A2780. Put plainly: Tumour cell proliferation/vitality assay (Alamar Blue), A2780. The settings on record: Homo sapiens; vitality assay, A2780 cells. It counts as cell-based. On the procedure:
(§1) In the present experiment description, the inhibition of tumour cell proliferation/tumour cell vitality by active compounds is described.
(§2) The cells are sown in a suitable cell density in microtitre plates (96-well format) and the test substances are added in the form of a concentration series. After four further days of cultivation in serum-containing medium, the tumour cell proliferation/tumour cell vitality can be determined by means of an Alamar Blue test system.
(§3) The cells are cultivated in medium. At intervals of several days, the cells are detached from the culture dishes with the aid of trypsin solution and sown in suitable dilution in fresh medium. The cells are cultivated at 37° Celsius and 10% CO2.
(§4) A defined number of cells (for example 2000 cells) per culture/well in a volume of 180 μl of culture medium are sown in microtitre plates (96 well cell-culture plates) using a multichannel pipette. The cells are subsequently cultivated in a CO2 incubator (37° C. and 10% CO2).
(§5) The test substances are dissolved, for example, in DMSO and subsequently employed in corresponding concentration (if desired in a dilution series) in the cell culture medium. The dilution steps can be adapted depending on the efficiency of the active compounds and the desired spread of the concentrations. Cell culture medium is added to the test substances in corresponding concentrations. The addition of the test substances to the cells can take place on the same day as the sowing of the cells. To this end, in each case 20 μl of substance solution from the predilution plate are added to the cultures/wells. The cells are cultivated for a further 4 days at 37° Celsius and 10% CO2.
(§6) In each case, 20 μl of Alamar Blue reagent are added per well, and the microtitre plates are incubated, for example, for a further seven hours in a CO2 incubator (at 37° C. and 10% CO2). The plates are measured in a reader with a fluorescence filter at a wavelength of 540 nm. The plates can be shaken gently immediately before the measurement.
(§7) The absorbance value of the medium control (no cells and test substances used) is subtracted from all other absorbance values. The controls (cells without test substance) are set equal to 100 percent, and all other absorbance values are set in relation thereto (for example in % of control): […]
(The colour change of resazurin is a common sign of viable cells or microbes.)

In test [2] the test system is HCT 116. Put plainly: Tumour cell proliferation/vitality assay (Alamar Blue), HCT 116. It counts as cell-based. The settings on record: Homo sapiens; vitality assay, HCT 116 cells. On the procedure: as §1, §2, §3, §4, §5, §6, §7
Test [3] deals with TGF-beta. Put plainly: Inhibition of TGF-beta-mediated effects (elimination of TGF-beta-mediated growth inhibition, Mv1Lu cells, Crystal Violet). It counts as cell-based. On the procedure:
In-Vitro (Enzyme) Assay for Determination of the Efficacy of the Inhibitors of the Inhibition of TGF-Beta-Mediated Effects
As an example, the ability of the inhibitors to eliminate TGF-beta-mediated growth inhibition is tested.
Cells of the lung epithelial cell line Mv1Lu are sown in a defined cell density in a 96-well microtitre plate and cultivated overnight under standard conditions. Next day, the medium is replaced by medium which comprises 0.5% of FCS and 1 ng/ml of TGF-beta, and the test substances are added in defined concentrations, generally in the form of dilution series with 5-fold steps. The concentration of the solvent DMSO is constant at 0.5%. After a further two days, Crystal Violet staining of the cells is carried out. After extraction of the Crystal Violet from the fixed cells, the absorption is measured spectrophotometrically at 550 nm. It can be used as a quantitative measure of the adherent cells present and thus of the cell proliferation during the culture.

In test [4] the target is IKKε (Homo sapiens (Human), UniProt Q14164). Put plainly: IKKε kinase test (384-well flashplate). It counts as biochemical. Particulars: read-out: IC50 [IKKepsilon]. On the procedure: (§8) The kinase assay is performed as 384-well flashplate assay.
IKKε, sequence (Q14164 whole entry, species assumed): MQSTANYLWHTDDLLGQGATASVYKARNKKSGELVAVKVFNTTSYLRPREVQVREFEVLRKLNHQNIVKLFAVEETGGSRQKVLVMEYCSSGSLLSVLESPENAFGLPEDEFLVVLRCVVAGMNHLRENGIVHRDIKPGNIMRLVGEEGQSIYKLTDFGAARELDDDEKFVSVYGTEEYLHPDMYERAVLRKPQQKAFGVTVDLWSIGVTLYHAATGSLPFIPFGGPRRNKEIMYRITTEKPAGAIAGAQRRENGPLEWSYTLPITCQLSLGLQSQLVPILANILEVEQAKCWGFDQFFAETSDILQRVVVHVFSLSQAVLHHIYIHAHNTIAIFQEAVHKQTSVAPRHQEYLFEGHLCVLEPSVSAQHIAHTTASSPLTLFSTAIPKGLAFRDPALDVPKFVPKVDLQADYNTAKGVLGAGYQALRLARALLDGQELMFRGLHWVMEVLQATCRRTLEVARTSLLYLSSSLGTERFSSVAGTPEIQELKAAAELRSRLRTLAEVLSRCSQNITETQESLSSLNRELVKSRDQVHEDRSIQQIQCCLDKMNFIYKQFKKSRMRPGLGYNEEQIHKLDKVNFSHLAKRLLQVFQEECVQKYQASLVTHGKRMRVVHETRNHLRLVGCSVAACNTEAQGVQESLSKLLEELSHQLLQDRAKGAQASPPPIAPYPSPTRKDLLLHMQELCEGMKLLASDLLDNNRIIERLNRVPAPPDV
1 nM IKKε, 800 nM biotinylated IκBα(19-42) peptide (biotin-C6-C6-[…]) and 10 μM ATP (with 0.3 μCi of ^33P-ATP/well) are incubated in a total volume of 50 μl (10 mM MOPS, 10 mM magnesium acetate, 0.1 mM EGTA, 1 mM dithiothreitol, 0.02% of Brij35, 0.1% of BSA, 0.1% of BioStab, pH 7.5) with or without test substance at 30° C. for 120 min. The reaction is stopped using 25 μl of 200 mM EDTA solution, filtered off with suction after 30 min at room temperature, and the wells are washed 3 times with 100 μl of 0.9% NaCl solution. The non-specific proportion of the kinase reaction (blank) is determined using 3 μM EMD 1126352 (BX-795). Radioactivity is measured in the Topcount. IC50 values are calculated using RS1.

The target in test [5] is TANK binding kinase (TBK1) (Homo sapiens (Human), UniProt Q9UHD2). Put plainly: TBK1 kinase test (384-well flashplate). It counts as biochemical. On the procedure:
as §8
0.6 nM TANK binding kinase (TBK1), 800 nM biotinylated MELK-derived peptide (biotin-Ah-Ah-[…]) and 10 μM ATP (with 0.25 μCi of ^33P-ATP/well) are incubated in a total volume of 50 μl (10 mM MOPS, 10 mM magnesium acetate, 0.1 mM EGTA, 1 mM DTT, 0.02% of Brij35, 0.1% of BSA, pH 7.5) with or without test substance at 30° C. for 120 min. The reaction is stopped using 25 μl of 200 mM EDTA solution, filtered off with suction after 30 min at room temperature, and the wells are washed 3 times with 100 μl of 0.9% NaCl solution. The non-specific proportion of the kinase reaction (blank) is determined using 100 nM staurosporine. Radioactivity is measured in the Topcount. IC50 values are calculated using RS1.

Test [6] addresses PDK1 (Homo sapiens (Human), UniProt O15530). Put plainly: Test for the inhibition of PDK1 (flashplate, 33P-ATP). It counts as biochemical. On the procedure:
The experimental batches are carried out in a flashplate system with 384 wells/microtitration plate.
(400 nM), 4 μM ATP (with 0.2 μCi of ^33P-ATP/well) and the test substance in 50 μl of conventional experimental solution per well are incubated at 30° C. for 60 min. The test substances are employed in corresponding concentrations (if desired in a dilution series). The control is carried out without test substance. The reaction is stopped using standard methods and washed. The activity of the kinase is measured via the incorporated radioactivity in top count. In order to determine the non-specific kinase reaction (blank value), the experimental batches are carried out in the presence of 100 nM staurosporine.
The radioactivity (decompositions per minute) of the blank value (no use of test substance in the presence of staurosporine) is subtracted from all other radioactivity values. The controls (kinase activity without test substance) are set equal to 100 percent and all other radioactivity values (after subtracting the blank value) are expressed set in relation thereto (for example in % of the control).

PDK1, sequence (O15530 51-556): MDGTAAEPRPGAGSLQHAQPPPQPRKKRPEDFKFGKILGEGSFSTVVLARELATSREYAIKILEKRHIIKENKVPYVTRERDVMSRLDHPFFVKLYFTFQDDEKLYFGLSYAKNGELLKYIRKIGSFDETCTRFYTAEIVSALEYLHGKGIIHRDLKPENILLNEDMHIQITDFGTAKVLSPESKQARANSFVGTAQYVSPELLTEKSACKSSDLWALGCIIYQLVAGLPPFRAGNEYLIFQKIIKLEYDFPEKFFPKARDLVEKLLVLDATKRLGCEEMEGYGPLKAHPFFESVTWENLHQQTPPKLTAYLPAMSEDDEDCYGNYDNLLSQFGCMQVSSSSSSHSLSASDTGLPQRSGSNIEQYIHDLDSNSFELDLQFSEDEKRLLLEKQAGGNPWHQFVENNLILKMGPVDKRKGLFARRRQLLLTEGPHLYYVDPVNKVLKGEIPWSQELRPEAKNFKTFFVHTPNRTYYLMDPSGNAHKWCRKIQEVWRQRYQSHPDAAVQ
TANK binding kinase (TBK1), sequence (Q9UHD2 whole entry, species assumed): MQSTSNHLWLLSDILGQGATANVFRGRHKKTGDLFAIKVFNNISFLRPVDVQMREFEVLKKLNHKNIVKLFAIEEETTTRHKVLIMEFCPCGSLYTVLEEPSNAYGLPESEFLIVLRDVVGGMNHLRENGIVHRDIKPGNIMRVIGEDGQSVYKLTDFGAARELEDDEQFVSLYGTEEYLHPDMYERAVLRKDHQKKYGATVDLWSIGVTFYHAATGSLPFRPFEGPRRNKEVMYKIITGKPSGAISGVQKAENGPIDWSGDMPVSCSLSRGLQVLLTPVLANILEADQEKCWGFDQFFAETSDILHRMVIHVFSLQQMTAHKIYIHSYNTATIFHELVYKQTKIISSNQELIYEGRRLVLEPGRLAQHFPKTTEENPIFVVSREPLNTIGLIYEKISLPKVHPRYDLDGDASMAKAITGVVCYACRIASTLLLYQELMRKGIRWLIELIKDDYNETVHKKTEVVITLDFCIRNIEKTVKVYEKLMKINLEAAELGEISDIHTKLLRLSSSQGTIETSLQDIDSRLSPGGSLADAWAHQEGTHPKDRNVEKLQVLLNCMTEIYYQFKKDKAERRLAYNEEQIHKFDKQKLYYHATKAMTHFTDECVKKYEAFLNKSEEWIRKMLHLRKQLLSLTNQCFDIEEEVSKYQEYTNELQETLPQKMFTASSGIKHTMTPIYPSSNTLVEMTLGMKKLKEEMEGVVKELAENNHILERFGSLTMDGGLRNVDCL

For `Nc1cc(-c2c[nH]c3ncccc23)c2ccccc2n1` [Compound A1, 4-(1H-pyrrolo[2,3-b]pyridin-3-yl)quinolin-2-ylamine], the IC50 in test [1] and in test [2] was 1 to 10 µM in each case.
For the compound `c1cnc2[nH]cc(-c3cnc4ncccn34)c2c1` [Compound A3, 3-(1H-pyrrolo[2,3-b]pyridin-3-yl)imidazo[1,2-a]pyrimidine], the IC50 in test [1] and in test [2] was 1 to 10 µM throughout.
For `c1ccc2c(-c3c[nH]c4ncccc34)cnnc2c1` [Compound A4, 4-(1H-pyrrolo[2,3-b]pyridin-3-yl)cinnoline], the IC50 in test [3], in test [1] and in test [2] was 1 to 10 µM throughout.
Take `c1cc(-c2c[nH]c3ncccc23)c2ccncc2c1` [Compound A7, 5-(1H-pyrrolo[2,3-b]pyridin-3-yl)isoquinoline]: the IC50 lay within 1 to 10 µM in test [4]; 1 to 10 µM in test [5]; 0.0005 to 1 µM in test [3]; 1 to 10 µM in test [1]; 1 to 10 µM in test [2].
`Nc1nccc2c(-c3c[nH]c4ncccc34)cccc12` [Compound A11, 5-(1H-pyrrolo[2,3-b]pyridin-3-yl)isoquinolin-1-ylamine]: the IC50 in test [3], in test [1] and in test [2] was 1 to 10 µM throughout.
Consider `Cn1cc(-c2cnc3[nH]cc(-c4cn(S(=O)(=O)c5ccccc5)c5cnccc45)c3c2)cn1` [Compound A14, 1-benzenesulfonyl-3-[5-(1-methyl-1H-pyrazol-4-yl)-1H-pyrrolo[2,3-b]pyridin-3-yl]-1H-pyrrolo[2,3-c]pyridine], for which the IC50 lay in the range of 1 to 10 µM in test [6], 0.0005 to 1 µM in test [4], 0.0005 to 1 µM in test [5] and 0.01 to 1 µM in test [1].
Compound `Cc1[nH]c2ncccc2c1-c1cccc2cnccc12` [Compound A15, 5-(2-methyl-1H-pyrrolo[2,3-b]pyridin-3-yl)isoquinoline] yielded an IC50 in test [3] of 0.0005 to 1 µM.
`c1cnc2[nH]cc(-c3nccc4cnccc34)c2c1` [Compound A16, 1-(1H-pyrrolo[2,3-b]pyridin-3-yl)-2,6-naphthyridine] gave an IC50 in test [3] of 0.0005 to 1 µM.
On the same count and under the same terms, as for `Cn1cc(-c2cccc3cnccc23)c2cccnc21` [Compound A17, 5-(1-methyl-1H-pyrrolo[2,3-b]pyridin-3-yl)isoquinoline], the figure is 0.0005 to 1 µM.
With `c1cnc2[nH]cc(-c3c[nH]c4cnccc34)c2c1` [Compound A18, 3-(1H-pyrrolo[2,3-b]pyridin-3-yl)-1H-pyrrolo[2,3-c]pyridine], the IC50 was in the range of 1 to 10 µM in test [6], 1 to 10 µM in test [4], 0.0005 to 1 µM in test [5] and 1 to 10 µM in test [3].
In test [3], `Cn1cc(-c2c[nH]c3ncccc23)c2ccncc21` [Compound A19, 1-methyl-3-(1H-pyrrolo[2,3-b]pyridin-3-yl)-1H-pyrrolo[2,3-c]pyridine] displayed an IC50 of 1 to 10 µM.
Regarding `Cn1cc(-c2cnc3[nH]cc(-c4c[nH]c5cnccc45)c3c2)cn1` [Compound A20, 3-[5-(1-methyl-1H-pyrazol-4-yl)-1H-pyrrolo[2,3-b]pyridin-3-yl]-1H-pyrrolo[2,3-c]pyridine], the IC50 in test [6] fell in the range of 0.0005 to 1 µM; in test [4] it was 0.0005 to 1 µM; in test [5] it was 0.0005 to 1 µM; in test [3] it was 0.0005 to 1 µM; in test [1], 0.01 to 1 µM; in test [2], 0.01 to 1 µM.
`c1ccc(-c2cc3nccc(-c4c[nH]c5ncccc45)c3o2)cc1` [Compound A21, 2-phenyl-7-(1H-pyrrolo[2,3-b]pyridin-3-yl)furo[3,2-b]pyridine]: the IC50 in test [1] and in test [2] was 0.01 to 1 µM each time.
Take `Nc1ncc(-c2c[nH]c3ncccc23)c2ccncc12` [Compound A24, 4-(1H-pyrrolo[2,3-b]pyridin-3-yl)-2,7-naphthyridin-1-ylamine]: the IC50 fell in the range of 1 to 10 µM in test [5], 0.0005 to 1 µM in test [3], 1 to 10 µM in test [1] and 1 to 10 µM in test [2].
In test [3], `Cc1[nH]c2ncccc2c1-c1nccc2cnccc12` [Compound A28, 1-(2-methyl-1H-pyrrolo[2,3-b]pyridin-3-yl)-2,6-naphthyridine] returned an IC50 of 0.0005 to 1 µM.
Take `Cn1cc(-c2c[nH]c3cnccc23)c2cccnc21` [Compound A29, 3-(1-methyl-1H-pyrrolo[2,3-b]pyridin-3-yl)-1H-pyrrolo[2,3-c]-pyridine]: the half-maximal inhibitory concentration (IC50) in test [1] and in test [2] was 1 to 10 µM each time.
On to `Cc1[nH]c2ncccc2c1-c1nccc2c(N)nccc12` [Compound A31, 5-(2-methyl-1H-pyrrolo[2,3-b]pyridin-3-yl)-2,6-naphthyridin-1-ylamine], for which the concentration for half-maximal inhibition (IC50) in test [3] fell in the range of 0.0005 to 1 µM; in test [1] it was 1 to 10 µM; in test [2], 1 to 10 µM.
With `Nc1nccc2c(-c3c[nH]c4ncccc34)nccc12` [Compound A32, 5-(1H-pyrrolo[2,3-b]pyridin-3-yl)-2,6-naphthyridin-1-ylamine], the IC50 in test [3] is 0.0005 to 1 µM; in test [2] it was 1 to 10 µM.
Turning to `Cn1cc(-c2cnc3[nH]cc(-c4cn(C)c5cnccc45)c3c2)cn1` [Compound A33, 1-methyl-3-[5-(1-methyl-1H-pyrazol-4-yl)-1H-pyrrolo[2,3-b]-pyridin-3-yl]-1H-pyrrolo[2,3-c]pyridine], the IC50 in test [6], in test [4], in test [5] and in test [3] was 0.0005 to 1 µM each time.
